Like-named read-outs stand apart in the source and are kept apart here.
Experiments:
[1] = tested on: RPMI-8226
[2] = tested on: K-562
[3] = tested on: NCI-H460
[4] = tested on: A549/ATCC
[5] = tested on: 786-0
[6] = tested on: CAKI-1
[7] = tested on: KM12
[8] = tested on: OVCAR-4
[9] = tested on: UACC-257
[10] = tested on: SF-295
[11] = tested on: SK-MEL-2
[12] = tested on: M14
[13] = tested on: OVCAR-8
[14] = tested on: UACC-62
[15] = tested on: OVCAR-3
[16] = tested on: ACHN
[17] = tested on: NCI-H522
[18] = tested on: A498
[19] = tested on: SNB-75
[20] = tested on: MDA-MB-231/ATCC
[21] = tested on: NCI/ADR-RES
[22] = tested on: MALME-3M
[23] = tested on: RXF 393
[24] = tested on: HS 578T
[25] = tested on: T-47D
[26] = tested on: PC-3
[27] = tested on: IGROV1; experiment: NCI 60 cell line five dose, Ovarian Cancer; type: cell-based, human
[28] = tested on: HOP-62; experiment: NCI 60 cell line five dose, Non-Small Cell Lung Cancer; type: cell-based, human; details: for CC50: read-out: LC50 (the source's name)

Q: What does the source list for C=C1C(=O)O[C@H]2[C@H]1CC/C(COC(=O)CCC(=O)NCCCCCCCCNC(=O)CCC(=O)OC/C1=C/CC[C@@]3(C)O[C@H]3[C@H]3OC(=O)C(=C)[C@@H]3CC1)=C\CC[C@@]1(C)O[C@@H]21 [JVM 2-87, bis(((1aR,7aS,10aS,10bS,E)-1a-Methyl-8-methylene-9-oxo-1a,2,3,6,7,7a,8,9,10a,1b-decahydrooxireno[2′,3′:9,10]cyclodeca[1,2-b]furan-5-yl)methyl)4,4′-(octane-1,8-diylbis(azanediyl))bis(4-oxobutanoate)]?
A: CC50 [1]: > 100 µM; CC50 [2]: > 100 µM; CC50 [3]: 66.2 µM; CC50 [4]: 89.4 µM; CC50 [5]: 6.67 µM; CC50 [6]: 80.3 µM; CC50 [7]: 53.4 µM; CC50 [8]: 9.38 µM; CC50 [9]: 16 µM; CC50 [10]: 56.8 µM; CC50 [11]: 9.38 µM; CC50 [12]: 8.02 µM; CC50 [13]: > 100 µM; CC50 [14]: 8.94 µM; CC50 [15]: 5.31 µM; CC50 [16]: 34.7 µM; CC50 [17]: 6.36 µM; CC50 [18]: 49.6 µM; CC50 [19]: 26.9 µM; CC50 [20]: 9.88 µM; CC50 [21]: > 100 µM; CC50 [22]: 8 µM; CC50 [23]: 7.27 µM; CC50 [24]: > 100 µM

Q: Which results are given for C=C1C(=O)O[C@H]2[C@H]1CC/C(COC(=O)CCC(=O)NCCCCCCCCCNC(=O)CCC(=O)OC/C1=C/CC[C@@]3(C)O[C@H]3[C@H]3OC(=O)C(=C)[C@@H]3CC1)=C\CC[C@@]1(C)O[C@@H]21 [JVM 2-92, bis(((1aR,7aS,10aS,10bS,E)-1a-Methyl-8-methylene-9-oxo-1a,2,3,6,7,7a,8,9,10a,10b-decahydrooxireno[2′,3′:9,10]cyclodeca[1,2-b]furan-5-yl)methyl)4,4′-(nonane-1,9-diylbis(azanediyl))bis (4-oxobutanoate)]?
A: CC50 [1]: > 100 µM; CC50 [2]: > 100 µM; CC50 [3]: 25.7 µM; CC50 [25]: > 100 µM; CC50 [4]: 82.6 µM; CC50 [5]: 6.04 µM; CC50 [6]: 49.9 µM; CC50 [7]: 50.2 µM; CC50 [8]: 8.06 µM; CC50 [9]: 32 µM; CC50 [10]: 52 µM; CC50 [26]: 29.6 µM; CC50 [11]: 8.13 µM; CC50 [12]: 8.05 µM; CC50 [13]: > 100 µM; CC50 [14]: 8.44 µM; CC50 [15]: 5.3 µM; CC50 [16]: 17.2 µM; CC50 [17]: 5.63 µM; CC50 [18]: 31.3 µM; CC50 [19]: 15.6 µM; CC50 [20]: 13.3 µM; CC50 [21]: > 100 µM; CC50 [22]: 8.93 µM; CC50 [23]: 6.21 µM; CC50 [24]: > 100 µM

Q: How did the GI50 [27] turn out when C=C1C(=O)O[C@H]2[C@H]1CC/C(COC(=O)NCCCCNC(=O)OC/C1=C/CC[C@@]3(C)O[C@H]3[C@H]3OC(=O)C(=C)[C@@H]3CC1)=C\CC[C@@]1(C)O[C@@H]21 [JVM 3-54, bis(((1aR,7aS,10aS,10bS,E)-1a-Methyl-8-methylene-9-oxo-1a,2,3,6,7,7a,8,9,10a,10b-decahydrooxireno[2′,3′:9,10]cyclodeca[1,2-b]furan-5-yl)methyl)butane-1,4-diyldicarbamate] was run?
A: 3.32 µM

Q: What about the TGI [27] of the same molecule?
A: 1.24e-05 M

Q: What about the “Percent Growth” value ([27]; Log10 Concentration −4.0) of the same molecule?
A: −76%

Q: And the “Percent Growth” value ([27]; Log10 Concentration −5.0)?
A: 8%

Q: What about the “Percent Growth” value ([27]; Log10 Concentration −6.0) of the same molecule?
A: 96%

Q: What about the “Percent Growth” value ([27]; Log10 Concentration −7.0) of the same molecule?
A: 104%

Q: And the “Percent Growth” value ([27]; Log10 Concentration −8.0)?
A: 101%

Q: What about the CC50 ([27]; read-out: LC50 (the source's name)) of the same molecule?
A: 48.6 µM

Q: What about the GI50 [28] of the same molecule?
A: 3.84 µM

Q: What about the TGI [28] of the same molecule?
A: 1.4e-05 M

Q: What about the “Percent Growth” value ([28]; Log10 Concentration −4.0) of the same molecule?
A: −82%

Q: And the “Percent Growth” value ([28]; Log10 Concentration −5.0)?
A: 14%

Q: And the “Percent Growth” value ([28]; Log10 Concentration −6.0)?
A: 101%

Q: And the “Percent Growth” value ([28]; Log10 Concentration −7.0)?
A: 95%

Q: What about the “Percent Growth” value ([28]; Log10 Concentration −8.0) of the same molecule?
A: 94%

Q: What about the CC50 [28] of the same molecule?
A: 46.1 µM

Q: Which “Percent Growth” value ([27]; Log10 Concentration −4.0) does the source give for C=C1C(=O)O[C@H]2[C@H]1CC/C(COC(=O)NCCCCCCCCNC(=O)OC/C1=C/CC[C@@]3(C)O[C@H]3[C@H]3OC(=O)C(=C)[C@@H]3CC1)=C\CC[C@@]1(C)O[C@@H]21 [JVM 3-62, bis(((1aR,7aS, 10aS, 10bS, E)-1a-Methyl-8-methylene-9-oxo-1a,2,3,6,7,7a,8,9,10a,10b-decahydrooxireno[2′,3′:9,10]cyclodeca[1,2-b]furan-5-yl)methyl)octane-1,8-diyldicarbamate] here?
A: −71%

Q: What about the “Percent Growth” value ([27]; Log10 Concentration −5.0) of the same molecule?
A: −71%

Q: And the “Percent Growth” value ([27]; Log10 Concentration −6.0)?
A: 61%

Q: And the “Percent Growth” value ([27]; Log10 Concentration −7.0)?
A: 102%

Q: And the “Percent Growth” value ([27]; Log10 Concentration −8.0)?
A: 105%

Q: What about the GI50 ([27]; molar) of the same molecule?
A: 1.01 µM

Q: What about the TGI ([27]; molar) of the same molecule?
A: 2.61E−6

Q: What about the “Percent Growth” value ([28]; Log10 Concentration −4.0) of the same molecule?
A: −80%

Q: And the “Percent Growth” value ([28]; Log10 Concentration −5.0)?
A: −64%

Q: And the “Percent Growth” value ([28]; Log10 Concentration −6.0)?
A: 76%

Q: And the “Percent Growth” value ([28]; Log10 Concentration −7.0)?
A: 103%

Q: What about the “Percent Growth” value ([28]; Log10 Concentration −8.0) of the same molecule?
A: 103%

Q: And the GI50 ([28]; molar)?
A: 1.53 µM

Q: What about the TGI ([28]; molar) of the same molecule?
A: 3.49E−6

Q: And the CC50 ([28]; molar)?
A: 7.95 µM

Source: patent US10118935B2, “Melampomagnolide B dimers” (priority 2014, dated 2018)
